Experimental data: US8513203B2, “Composition and method thereof” (Indus Biotech Private Limited, priority 2011, dated 2013)

Test system: FCA induced arthritis
Test: FCA induced arthritis, non-injected paw volume
Type: in vivo, rat
Details: 10 mg/kg
Procedure: Anti-arthritis activity was studied by injecting Freund's complete adjuvant (FCA) in rat paw and measuring the edema formation and percentage inhibition of paw volume in the non-injected paw.
Male wistar rats weighing between 190-250 g were injected with 0.1 ml of FCA into the sub planter region of left hind paw. 0.1 ml of FCA solution consist of 6 mg of Complete Fraction of Mycobacterium Butyrium (Difco) being Suspended in heavy Paraffin Oil (Merck). Local oedema was produced after few hrs. Treatment with the test compound was carried out from day 13 to day 21 after FCA injection. Volume of the non-injected hind paw was recorded using plethysmometer (UGO Basile 7140).
The percentage inhibition of inflammation in the non-injected paw was measured as difference in the mean paw volume of the FCA control group to that of the treated animals.

Cc1ccc(-c2cc(C(F)(F)F)nn2-c2ccc(S(N)(=O)=O)cc2)cc1 [Celecoxib]
Percentage reduction of FCA induced arthritis (Day 18): 58.97 ± 35.93 % | Percentage reduction of FCA induced arthritis (Day 21): 81.24 ± 22.35 %
